From patent publication US20260285875A1, “INHIBITORS OF PARG” (858 Therapeutics, Inc., priority 2023, published 2026) come the findings set out here.

The assay addresses T1, cellular PARG (Homo sapiens, UniProt Q86W56).
T1 construct: endogenous in cells; host or cells: HeLa
Description: Nuclear PAR accumulation assay (immunofluorescence high-content imaging, MMS-treated HeLa cells). The following applies: 1 hour compound then MMS 50 μg/mL for an additional hour. In kind it is cell-based. The procedure, abridged: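 HeLa cells pretreated with compound for 1 h at 37° C, then given 50 μg/mL MMS for another hour. After methanol fixation, PAR was immunostained with DAPI nuclear counterstain; per-nucleus intensity and percent PAR-positive cells were imaged at 20× (≥1,000 cells/well). IC50 from four-parameter logistic fit.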

T1 sequence (Q86W56 whole entry): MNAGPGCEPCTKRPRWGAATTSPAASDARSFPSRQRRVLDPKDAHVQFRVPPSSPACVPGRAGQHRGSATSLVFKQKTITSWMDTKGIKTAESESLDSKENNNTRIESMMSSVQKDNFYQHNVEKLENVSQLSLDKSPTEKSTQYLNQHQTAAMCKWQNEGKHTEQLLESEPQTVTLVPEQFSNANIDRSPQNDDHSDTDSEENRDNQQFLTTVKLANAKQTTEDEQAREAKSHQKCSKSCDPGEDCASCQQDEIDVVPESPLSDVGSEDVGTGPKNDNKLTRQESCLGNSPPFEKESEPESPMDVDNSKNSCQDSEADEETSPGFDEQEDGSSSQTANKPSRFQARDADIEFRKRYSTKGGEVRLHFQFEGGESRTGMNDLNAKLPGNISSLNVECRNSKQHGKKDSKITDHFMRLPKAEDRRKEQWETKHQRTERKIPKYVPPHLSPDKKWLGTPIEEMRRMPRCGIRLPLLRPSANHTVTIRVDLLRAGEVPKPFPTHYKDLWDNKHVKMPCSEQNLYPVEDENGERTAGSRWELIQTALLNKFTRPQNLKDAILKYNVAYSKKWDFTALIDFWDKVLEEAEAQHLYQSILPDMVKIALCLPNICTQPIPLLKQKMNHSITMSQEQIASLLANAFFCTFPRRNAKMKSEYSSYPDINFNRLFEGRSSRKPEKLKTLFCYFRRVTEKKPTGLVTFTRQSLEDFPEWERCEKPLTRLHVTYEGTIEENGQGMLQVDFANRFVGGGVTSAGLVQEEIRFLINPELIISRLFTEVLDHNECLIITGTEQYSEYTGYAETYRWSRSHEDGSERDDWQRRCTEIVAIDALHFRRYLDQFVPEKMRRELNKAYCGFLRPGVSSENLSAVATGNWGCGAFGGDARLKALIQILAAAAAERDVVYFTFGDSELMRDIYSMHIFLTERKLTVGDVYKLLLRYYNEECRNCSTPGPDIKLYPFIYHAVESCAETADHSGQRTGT

Usually IC50 stands for the concentration that inhibits the measured activity by half. Compound `CNC(=O)c1ccc(-c2cc(S(=O)(=O)NC3(C)CC3)cc3c2N2C(=N[C@H]4CCC[C@H]42)N(C)C3=O)cn1` [Example 50, N-methyl-5-((7aS,10aR)-6-methyl-3-(N-(1-methylcyclopropyl)sulfamoyl)-5-oxo-6,7a,8,9,10,10a-hexahydro-5H-cyclopenta[4,5]imidazo[1,2-a]quinazolin-1-yl)picolinamide] came in with an IC50 of 100 to 1000 nM.

As for `C#C[C@@H]1CN=C2N(C)C(=O)c3cc(S(=O)(=O)NC4(C)CC4)cc(Cl)c3N21` [Example 51, (R)-9-chloro-1-ethynyl-4-methyl-N-(1-methylcyclopropyl)-5-oxo-1,2,4,5-tetrahydroimidazo[1,2-a]quinazoline-7-sulfonamide], the IC50 is under 100 nM. `CN1C(=O)c2cc(S(=O)(=O)NC3(C)CC3)cc(C3=CCN(C(=O)C4CC4)CC3)c2N2C1=N[C@H]1CCC[C@H]12` [Example 52, (7aS,10aR)-1-(1-(cyclopropanecarbonyl)-1,2,3,6-tetrahydropyridin-4-yl)-6-methyl-N-(1-methylcyclopropyl)-5-oxo-6,7a,8,9,10,10a-hexahydro-5H-cyclopenta[4,5]imidazo[1,2-a]quinazoline-3-sulfonamide]: the IC50 is under 100 nM. Consider `C[C@@H]1CN=C2N(Cc3cnn(C)c3)C(=O)c3cc(S(=O)(=O)NC4(C)CC4)cc(N4C[C@H](C)N[C@@H](C)C4)c3N21` [Example 53, (R)-9-((3S,5S)-3,5-dimethylpiperazin-1-yl)-1-methyl-4-((1-methyl-1H-pyrazol-4-yl)methyl)-N-(1-methylcyclopropyl)-5-oxo-1,2,4,5-tetrahydroimidazo[1,2-a]quinazoline-7-sulfonamide], for which the IC50 was 1000 to 10000 nM. With `C[C@H]1CN(c2cc(S(=O)(=O)NC3(C)CC3)cc3c2N2CC(C)(C)N=C2N(C)C3=O)C[C@H](C)N1` [Example 54, 9-((3S,5S)-3,5-dimethylpiperazin-1-yl)-2,2,4-trimethyl-N-(1-methylcyclopropyl)-5-oxo-1,2,4,5-tetrahydroimidazo[1,2-a]quinazoline-7-sulfonamide], the IC50 lay within 100 to 1000 nM.

Compound `[2H]C([2H])(c1cnn(C)c1)N1C(=O)c2cc(S(=O)(=O)NC3(C)CC3)ccc2N2C1=NC[C@H]2C#CCN(C)C` [Example 55, (R)-1-(3-(dimethylamino)prop-1-yn-1-yl)-4-((1-methyl-1H-pyrazol-4-yl)methyl-d2)-N-(1-methylcyclopropyl)-5-oxo-1,2,4,5-tetrahydroimidazo[1,2-a]quinazoline-7-sulfonamide] showed a half-inhibitory concentration (IC50) of under 100 nM. `CN(C)CC#C[C@@H]1CN=C2N(C)C(=O)c3cc(S(=O)(=O)NC4(C)CC4)cc(Cl)c3N21` [Example 56, (R)-9-chloro-1-(3-(dimethylamino)prop-1-yn-1-yl)-4-methyl-N-(1-methylcyclopropyl)-5-oxo-1,2,4,5-tetrahydroimidazo[1,2-a]quinazoline-7-sulfonamide] came in with an IC50 of under 100 nM. Under `COc1ccc(C(=O)/C=C/C(=O)N2CCN(c3cc(S(=O)(=O)NC4(C)CC4)cc4c3N3C(=NC[C@H]3C)N(C)C4=O)CC2)cc1` [Example 57, (R,E)-9-(4-(4-(4-methoxyphenyl)-4-oxobut-2-enoyl)piperazin-1-yl)-1,4-dimethyl-N-(1-methylcyclopropyl)-5-oxo-1,2,4,5-tetrahydroimidazo[1,2-a]quinazoline-7-sulfonamide] stands 100 to 1000 nM. On to `CNC(=O)c1ccc(-c2cc(S(=O)(=O)NC3(C)CC3)cc3c2N2CC(C)(C)N=C2N(C)C3=O)cn1` [Example 58, N-methyl-5-(2,2,4-trimethyl-7-(N-(1-methylcyclopropyl)sulfamoyl)-5-oxo-1,2,4,5-tetrahydroimidazo[1,2-a]quinazolin-9-yl)picolinamide], for which the IC50 was in the range of 100 to 1000 nM.

For `CN1C(=O)c2cc(S(=O)(=O)NC3(C)CC3)cc(C3=CCN(C(=O)C4CC4)CC3)c2N2CC(C)(C)N=C12` [Example 59, 9-(1-(cyclopropanecarbonyl)-1,2,3,6-tetrahydropyridin-4-yl)-2,2,4-trimethyl-N-(1-methylcyclopropyl)-5-oxo-1,2,4,5-tetrahydroimidazo[1,2-a]quinazoline-7-sulfonamide], the IC50 is 100 to 1000 nM. With `Cc1cc(F)ccc1-c1cc(S(=O)(=O)NC2(C)CC2)cc2c1N1CC(C)(C)N=C1N(C)C2=O` [Example 61, 9-(4-fluoro-2-methylphenyl)-2,2,4-trimethyl-N-(1-methylcyclopropyl)-5-oxo-1,2,4,5-tetrahydroimidazo[1,2-a]quinazoline-7-sulfonamide], the IC50 lay in the range of 100 to 1000 nM. For the compound `C[C@@H]1CN=C2N(C)C(=O)c3cc(S(=O)(=O)NC4(C)CC4)cc(-c4ccccc4CO)c3N21` [Example 62, (R)-9-(2-(hydroxymethyl)phenyl)-1,4-dimethyl-N-(1-methylcyclopropyl)-5-oxo-1,2,4,5-tetrahydroimidazo[1,2-a]quinazoline-7-sulfonamide], the IC50 is 1000 to 10000 nM. In turn, `C[C@@H]1CN=C2N(C)C(=O)c3cc(S(=O)(=O)NC4(C)CC4)cc(-c4ccccc4C#N)c3N21` [Example 63, (R)-9-(2-cyanophenyl)-1,4-dimethyl-N-(1-methylcyclopropyl)-5-oxo-1,2,4,5-tetrahydroimidazo[1,2-a]quinazoline-7-sulfonamide] returned an IC50 of 1000 to 10000 nM. As for `C[C@@H]1CN=C2N(CCCO)C(=O)c3cc(S(=O)(=O)NC4(C)CC4)ccc3N21` [Example 64, (R)-4-(3-hydroxypropyl)-1-methyl-N-(1-methylcyclopropyl)-5-oxo-1,2,4,5-tetrahydroimidazo[1,2-a]quinazoline-7-sulfonamide], the figure is 1000 to 10000 nM; as for `Cn1cc(CN2C(=O)c3cc(S(=O)(=O)NC4(C)CC4)ccc3N3C2=NC[C@H]3C#Cc2ccn(C)n2)cn1` [Example 65, (R)-1-((1-methyl-1H-pyrazol-3-yl)ethynyl)-4-((1-methyl-1H-pyrazol-4-yl)methyl)-N-(1-methylcyclopropyl)-5-oxo-1,2,4,5-tetrahydroimidazo[1,2-a]quinazoline-7-sulfonamide], under 100 nM; as for `Cn1cc(CN2C(=O)c3cc(S(=O)(=O)NC4(C)CC4)ccc3N3C2=NC[C@H]3C#Cc2ncn(C)n2)cn1` [Example 66, (R)-1-((1-methyl-1H-1,2,4-triazol-3-yl)ethynyl)-4-((1-methyl-1H-pyrazol-4-yl)methyl)-N-(1-methylcyclopropyl)-5-oxo-1,2,4,5-tetrahydroimidazo[1,2-a]quinazoline-7-sulfonamide], under 100 nM. The compound `Cn1cc(CN2C(=O)c3cc(S(=O)(=O)NC4(C)CC4)ccc3N3C2=NC[C@H]3C#Cc2ccccn2)cn1` [Example 67, (R)-4-((1-methyl-1H-pyrazol-4-yl)methyl)-N-(1-methylcyclopropyl)-5-oxo-1-(pyridin-2-ylethynyl)-1,2,4,5-tetrahydroimidazo[1,2-a]quinazoline-7-sulfonamide] had an IC50 of under 100 nM. As for `Cn1cc(CN2C(=O)c3cc(S(=O)(=O)NC4(C)CC4)ccc3N3C2=NC[C@H]3C#Cc2ncccn2)cn1` [Example 68, (R)-4-((1-methyl-1H-pyrazol-4-yl)methyl)-N-(1-methylcyclopropyl)-5-oxo-1-(pyrimidin-2-ylethynyl)-1,2,4,5-tetrahydroimidazo[1,2-a]quinazoline-7-sulfonamide], the IC50 is under 100 nM.

`Cn1cc(CN2C(=O)c3cc(S(=O)(=O)NC4(C)CC4)ccc3N3C2=NC[C@H]3C#CC(C)(C)O)cn1` [Example 69, (R)-1-(3-hydroxy-3-methylbut-1-yn-1-yl)-4-((1-methyl-1H-pyrazol-4-yl)methyl)-N-(1-methylcyclopropyl)-5-oxo-1,2,4,5-tetrahydroimidazo[1,2-a]quinazoline-7-sulfonamide] gave an IC50 of 100 to 1000 nM. The compound `CN1CCC([C@@H]2CN=C3N(Cc4cnn(C)c4)C(=O)c4cc(S(=O)(=O)NC5(C)CC5)ccc4N32)CC1` [Example 70, (R)-4-((1-methyl-1H-pyrazol-4-yl)methyl)-N-(1-methylcyclopropyl)-1-(1-methylpiperidin-4-yl)-5-oxo-1,2,4,5-tetrahydroimidazo[1,2-a]quinazoline-7-sulfonamide] showed an IC50 of 1000 to 10000 nM.

`C[C@@H]1CN=C2N(Cc3cnn(C)c3)C(=O)c3cc(S(=O)(=O)NC4(C)CC4)cc(N4CC[C@@H](N)C4)c3N21` [Example 71, (R)-9-((R)-3-aminopyrrolidin-1-yl)-1-methyl-4-((1-methyl-1H-pyrazol-4-yl)methyl)-N-(1-methylcyclopropyl)-5-oxo-1,2,4,5-tetrahydroimidazo[1,2-a]quinazoline-7-sulfonamide]: the IC50 was in the range of 100 to 1000 nM.

As for `C#C[C@@H]1CN=C2N(Cc3cnn(C)c3)C(=O)c3cc(S(=O)(=O)NC4(C)CC4)cc(Br)c3N21` [Example 72, (R)-9-bromo-1-ethynyl-4-((1-methyl-1H-pyrazol-4-yl)methyl)-N-(1-methylcyclopropyl)-5-oxo-1,2,4,5-tetrahydroimidazo[1,2-a]quinazoline-7-sulfonamide], the IC50 is under 100 nM. Take `C[C@@H]1CN=C2N(Cc3cnn(C)c3)C(=O)c3cc(S(=O)(=O)NC4(C)COC4)ccc3N21` [Example 73, (R)-1-methyl-4-((1-methyl-1H-pyrazol-4-yl)methyl)-N-(3-methyloxetan-3-yl)-5-oxo-1,2,4,5-tetrahydroimidazo[1,2-a]quinazoline-7-sulfonamide]: the IC50 lay in the range of 100 to 1000 nM. In the case of `C[C@@H]1CN=C2N(Cc3cnn(C)c3)C(=O)c3cc(S(=O)(=O)NC4(C)CC4)cc(N4CC(C)(N)C4)c3N21` [Example 74, (R)-9-(3-amino-3-methylazetidin-1-yl)-1-methyl-4-((1-methyl-1H-pyrazol-4-yl)methyl)-N-(1-methylcyclopropyl)-5-oxo-1,2,4,5-tetrahydroimidazo[1,2-a]quinazoline-7-sulfonamide], the IC50 lay in the range of 1000 to 10000 nM. In turn, `C[C@@H]1CN=C2N(Cc3cnn(C)c3)C(=O)c3cc(S(=O)(=O)NC4(C)CC4)cc(N4CC[C@H](N)C4)c3N21` [Example 75, (R)-9-((S)-3-aminopyrrolidin-1-yl)-1-methyl-4-((1-methyl-1H-pyrazol-4-yl)methyl)-N-(1-methylcyclopropyl)-5-oxo-1,2,4,5-tetrahydroimidazo[1,2-a]quinazoline-7-sulfonamide] returned an IC50 of 100 to 1000 nM.
